Data: ChEMBL document CHEMBL1125161, “O'-(epoxyalkyl)tyrosines and (epoxyalkyl)phenylalanine as irreversible inactivators of serine proteases: synthesis and inhibition mechanism” (J Med Chem, 1990)

Legend:
[1] = molecular target: Chymotrypsinogen A (Bos taurus, UniProt P00766); assay: (§1) Inhibitory activity against alpha-chymotrypsin
[2] = molecular target: Chymotrypsinogen A (Bos taurus) (UniProt P00766); assay: (§2) Ratio of the kinetic constants (ki X 10e3) versus Ki was reported
[3] = molecular target: Chymotrypsinogen A (Bos taurus) (UniProt P00766); assay: (§3) Ratio of the kinetic constants kH versus ki was reported
[4] = molecular target: Chymotrypsinogen A (Bos taurus) (UniProt P00766); assay: (§4) The ratio (ki + kH)/ki (turnover ratio) was determined using ultimate activity assay
[5] = molecular target: Chymotrypsinogen A (Bos taurus) (UniProt P00766); assay: as §1
[6] = system: Subtilisin (Bacillus); assay: Inhibitory activity against subtilisin
[7] = system: Subtilisin (Bacillus); assay: Ratio of the kinetic constants kH versus ki was reported
[8] = system: Subtilisin (Bacillus); assay: Ratio of the kinetic constants (ki X 10e3) versus Ki was reported
[9] = system: Subtilisin (Bacillus); assay: The ratio (ki + kH)/ki (turnover ratio) was determined using ultimate activity assay
[10] = (§5) Inhibitory activity against subtilisin
[11] = as §5; remark: listed apart in the source
[12] = as §5; remark: listed apart in the source
[13] = as §2
[14] = as §3
[15] = as §4

| SMILES | Ki [1] [µM] | Ratio [2] [M⁻¹ min⁻¹] | Ratio [3] | Ratio [4] | k obs [5] [s⁻¹] | kH [5] [s⁻¹] | other results |
| --- | --- | --- | --- | --- | --- | --- | --- |
| CCOC(=O)[C@H](Cc1ccc(OCC2CO2)cc1)NC(C)=O (some centres not stated) | – | – | – | – | – | – | k obs [6]: 0.0011 s⁻¹; kH [6]: 13.8 s⁻¹; Ratio [7]: 3900; Ratio [8]: 1000 M⁻¹ min⁻¹; Ratio [9]: 2000 |
| O=C(N[C@@H](Cc1ccc(OCC2CO2)cc1)C(=O)Nc1ccc([N+](=O)[O-])cc1)c1ccccc1 (some centres not stated) | 66 | 3000 | 184 | 80 | 0.00037 | 0.61 | – |
| O=C(N[C@@H](Cc1ccc(OCCC2CO2)cc1)C(=O)Nc1ccc([N+](=O)[O-])cc1)c1ccccc1 (some centres not stated) | 59 | 14000 | 60 | 20 | 0.00056 | 0.83 | – |
| CCOC(=O)[C@H](Cc1ccc(OCCC2CO2)cc1)NC(C)=O (some centres not stated) | – | – | – | – | – | – | Ki [10]: 0.0092 s⁻¹; k obs [11]: 0.0014 s⁻¹; kH [11]: 11.8 s⁻¹; Ki [12]: 140 µM; Ratio [13]: 3900 M⁻¹ min⁻¹; Ratio [14]: 1300; Ratio [15]: 500 |

Now from value to compound, other results behind:

| Ki [1] [µM] | Ratio [2] [M⁻¹ min⁻¹] | Ratio [3] | Ratio [4] | k obs [5] [s⁻¹] | kH [5] [s⁻¹] | SMILES | other results |
| --- | --- | --- | --- | --- | --- | --- | --- |
| 35 | 2400 | 109 | 26 | 0.00017 | 0.15 | CCOC(=O)[C@H](Cc1ccc(OCCCC2CO2)cc1)NC(=O)c1ccccc1 (some centres not stated) | – |
| 380 | 260 | 300 | 68 | 0.00055 | 5.2 | CCOC(=O)[C@H](Cc1ccc(OCC2CO2)cc1)NC(=O)c1ccccc1 (some centres not stated) | – |
| 57 | 14600 | 28 | 13 | 0.00027 | 0.38 | CCOC(=O)[C@H](Cc1ccc(OCCC2CO2)cc1)NC(=O)c1ccccc1 (some centres not stated) | – |
